According to paper PMC3460372 (Organic letters, 2012):
Numbered stars: 1 amine (or outer) side, 2 acyl side, 3 side chain; on linkers, the order of the positions; unused ones are H or OH. Square brackets hold non-standard residues; d marks the D form. Peptide text beside a SMILES is read from it. * marks the point of attachment. Cinnamoyl(2-(1Z-pentenyl)) = CCC/C=C\c1ccccc1/C=C/C(=O)*; X1 = CN(/C(=C/c1ccc(O)cc1)C(=O)[*:2])[*:1]; aThr = C[C@H](O)[C@H](N)C(=O)O

Biological target: BmAsnRS (Brugia malayi asparaginyl-tRNA synthetase) (Brugia malayi, UniProt P10723)
Sequence (P10723 whole entry): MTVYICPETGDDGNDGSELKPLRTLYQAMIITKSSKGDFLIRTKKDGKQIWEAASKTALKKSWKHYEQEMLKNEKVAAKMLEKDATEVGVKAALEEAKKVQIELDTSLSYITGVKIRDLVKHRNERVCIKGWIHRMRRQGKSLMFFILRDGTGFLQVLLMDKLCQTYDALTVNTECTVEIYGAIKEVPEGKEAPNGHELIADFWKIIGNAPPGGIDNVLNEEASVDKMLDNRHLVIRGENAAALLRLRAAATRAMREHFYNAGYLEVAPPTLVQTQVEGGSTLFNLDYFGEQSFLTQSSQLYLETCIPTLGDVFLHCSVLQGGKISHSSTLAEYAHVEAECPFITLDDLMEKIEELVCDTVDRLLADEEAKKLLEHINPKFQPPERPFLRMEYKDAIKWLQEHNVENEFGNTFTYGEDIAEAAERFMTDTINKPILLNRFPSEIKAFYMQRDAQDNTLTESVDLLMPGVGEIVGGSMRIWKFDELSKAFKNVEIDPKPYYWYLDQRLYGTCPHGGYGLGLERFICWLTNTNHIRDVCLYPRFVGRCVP
Assay: nonradioactive pretransfer editing assay, malachite green phosphate detection
Type: biochemical

For CCC/C=C\c1ccccc1/C=C/C(=O)N[C@H](C(=O)N(C)/C(=C/c1ccc(O)cc1)C(=O)N[C@@H](CC(C)C)C(=O)N[C@H](Cc1ccccc1)C(=O)N[C@H](C(=O)O)[C@H](C)O)[C@@H](C)O [compound 3, WS9326D] ({Cinnamoyl(2-(1Z-pentenyl))}-T[X1]L[dF][aThr]-OH), which IC50 is on record?
The IC50 was about 50 µM.

With CCC/C=C\c1ccccc1/C=C/C(=O)N[C@@H](CO)C(=O)N(C)/C(=C/c1ccc(O)cc1)C(=O)N[C@@H](CC(C)C)C(=O)N[C@H](Cc1ccccc1)C(=O)N[C@H](C(=O)O)[C@H](C)O [compound 4, WS9326E] ({Cinnamoyl(2-(1Z-pentenyl))}-S[X1]L[dF][aThr]-OH) as the molecule, how does the IC50 read?
Its IC50 is about 75 µM.
